Experiments:
db/db diabetic mice = test: CLI induced by ULFA in db/db diabetic mice, treated with MDSC and/or molsidomine; assay type: in vivo; settings: 3 weeks
Protocol: CLI was induced by ULFA in db/db diabetic mice and treated as follows (n=8/group), for studying the effect of a long-acting NO donor, molsidomine: 1) Untreated (UT): vehicle; 2) MDSC (SC): MDSC into gastrocnemius; 3) MDSC-molsidomine (SC+Mol): as #2, and IP molsidomine (5 mg/kg/day); 4) Molsidomine (Mol) as in #3, no MDSC. Non-diabetic non-ULFA untreated (ND-UT) mice were controls.
At 3 weeks after initiating treatment, mortality, leg preservation, and limb loss/motion/ischemia were determined. Stem cell, myogenic, angiogenic, lipofibrosis, and neurogenesis markers were assayed in muscle tissue by quantitative histochemistry and immunohisto-chemistry and western blot.

[1] = test system: rat models for insulin resistance and T2DM; test: Low oral dose pioglitazone in rat models for insulin resistance and T2DM; assay type: in vivo

Row | Compound | follistatin expression in the skeletal muscle (db/db diabetic mice) | stem cell number, expression of stem cell marker nuclear Oct 4a in the skeletal muscle (db/db diabetic mice; gastrocnemius of ischemic leg, quantitative western blot) | number of central nuclei (early stage of myofiber repair) (db/db diabetic mice; hematoxylin-eosin histochemistry) | fat infiltration in the skeletal muscle (Oil Red O) (db/db diabetic mice; quantitative histochemistry) | fibrosis, collagen deposition in the skeletal muscle (Masson trichrome) (db/db diabetic mice; quantitative histochemistry) | vascular endothelial growth factor (VEGF) expression in the skeletal muscle (angiogenesis) (db/db diabetic mice; quantitative western blot) | vascular endothelium, CD-31 expression in the skeletal muscle (db/db diabetic mice; quantitative western blot) | vascular endothelium, von Willebrandt factor expression in the skeletal muscle (db/db diabetic mice; quantitative western blot) | vascular smooth muscle marker calponin in the skeletal muscle (db/db diabetic mice; quantitative western blot) | side effects ([1]; glycemia-normalizing dose of 12 mg/kg/day) | body weight ([1]; low oral dose 0.6 mg/kg/day) | glycemia ([1]; low oral dose 0.6 mg/kg/day)
1 | CCOC(=O)[N-]c1cn(N2CCOCC2)n[o+]1 [molsidomine] | decrease | reduced this effect | slightly inhibitory | did not reduce | did not exert this noxious effect | also angiogenic | increase | increase | abolished the effect |  |  | 
2 | CCc1ccc(CCOc2ccc(CC3SC(=O)NC3=O)cc2)nc1 (stereo not drawn) [pioglitazone] |  |  |  |  |  |  |  |  |  | obesity and fat infiltration in the tissues | does not exert glycemic control or increase body weight | 250 to 300 mg/dL

From US20150328249A1, “MODULATION OF MYOFIBER REPAIR BY ANTI-MYOSTATIN STRATEGIES AND/OR PPAR GAMMA LIGANDS, ALONE OR IN COMBINATION WITH STEM CELLS, FOR THE THERAPY OF CRITICAL LIMB ISCHEMIA AND OTHER ISCHEMIC PROCESSES AFFECTING THE SKELETAL MUSCLE” (LOS ANGELES BIOMEDICAL RESEARCH INSTITUTE AT HARBOR-UCLA …, priority 2012, published 2015)
